Experimental data: patent publication US20190255175A1, “ACTIVATION OF TRPA1+ NOCICEPTORS IN THE VAGUS NERVE ATTENUATES SYSTEMIC INFLAMMATION” (THE FEINSTEIN INSTITUTE FOR MEDICAL RESEARCH, priority 2018, published 2019)

What was measured:
[1] = tested on: sensory nodose ganglion neurons; test: Calcium influx (fluorescence) in sensory nodose ganglion neurons from VGlut2-GCaMP3 mice; format: cell-based; details: IL-1β 20 μg/ml; 6 out of 332 neurons
Experimental: Using patch clamp recordings, IL-1β responses were recorded in nodose ganglion neurons. Application of IL-1β (20 μg/ml) induced calcium influx as indicated by increase of fluorescence in 6 out of 332 (1.8%) sensory nodose ganglion neurons from VGlut2-GCaMP3 mice. Next, whole-cell patch clamp recordings were carried out on the same neurons that responded to IL-1β in calcium influx analysis. When the membrane potential was held at −65 mV, bath application of IL-1β (20 μg/ml) produced slow inward currents in 4 out of 332 (1.2%) nodose neurons. The amplitude of IL-1β induced currents are 108±23 pA (n=4). […] In current-clamp mode, IL-1β reduced action potential threshold from −25±2 mV to −31±3 mV (n=4). […] To further determine the potential interaction of TRPA1 with IL-1β, nodose ganglion neurons from TRPA1 KO mice were examined in a culture system. […] IL1R1 co-localizes with TRPA1 on nodose ganglion neurons, as was determined using immunohistochemical staining.

vagus nerve = test: Cervical vagus nerve electrophysiological recording after IL-1β challenge; format: in vivo, mice
Experimental: FIG. 3. TRPA1 is required for IL-1β induced vagus nerve signaling. Vagus nerve firing rate in 60s-Bins (mean±SEM) starting 5 min prior to IL-1β injection (350 ng/kg) indicated by arrow followed by 5 min post injection time.
Mice were induced with general anesthesia using isoflurane at 2.5% in 100% oxygen at a flow rate of 1 L/min. Once anesthetized, the mouse was moved to a supine position with the isoflurane maintained at 2.0% during surgery. The nerve was then isolated as described in previous publications^10,11,17. The core body temperature was monitored with a rectal probe and maintained around 37° C. with a heating pad and heat lamp. Prior to recording and nerve placement within the cuff, the electrode was submerged briefly in saline solution.
The electrophysiological signals were digitized from the vagus nerve using a Plexon data acquisition system (Omniplex, Plexon Inc., Dallas, Tex.). Recordings were sampled at 40 kHz with a 120 Hz filter and 50 gain. All signals were recorded from a bipolar cuff electrode referenced to the animal ground placed between the right salivary gland and the skin. In experiments with IL-1β challenge, following acquisition of the baseline activity (10 min), 350 ng/kg recombinant human IL-1β (eBioscience, San Diego, Calif.) was administered intraperitoneally; recordings were then continued for 10 min post-injection.
Analysis of raw recordings was done on Spike2 software (version 7, CED). Raw recordings were filtered (using a high pass filter) and smoothed. To identify neural signals, a user-specific adaptive threshold was employed. All signals were identified as neuronal or non-neuronal. Non-neuronal signals, which consisted mainly of cardiac and respiratory components, were manually removed. All recordings with no identifiable neuronal spikes were removed from analyses.
To recognize how knocking out TRPA1 further effects inflammatory signaling, TRPA1 KO and WT mice were injected with either saline or IL-1β ([…]).
To further determine fiber specificity, a TRPV1 cell depletion model was employed by breeding TRPV1-Cre mice with ROSA-DTA mice. […] To identify if TRPV1 itself is necessary for propagation of the signal, recordings were done in a genetic TRPV1 knockout (TRPV1 KO) mouse. […] To determine a molecular target on TRPV1+ neurons mediating afferent IL-1β signaling, the cation channel TRPA1 was identified. TRPA1 is found on a subset of TRPV1+ neurons; approximately 30%. However, TRPA1 co-localized with TRPV1 on 97% of TRPA1+ neurons^26.

## IL-1β: interleukin 1β; recombinant human IL-1β for nerve recordings, murine (rmIL-1β) for thermoregulation
[1]
  Neurons showing calcium influx (increase of fluorescence): 1.8%
Vagus nerve; TRPA1 KO mice
  Vagus nerve activation: fails to induce activation of the vagus nerve
Vagus nerve; TRPV1 KO mice
  Vagus nerve activity: significant increase
Vagus nerve; TRPV1 cell depletion model (TRPV1-Cre x ROSA-DTA mice)
  Vagus nerve activity: No significant enhancement of vagus nerve activity
Vagus nerve; wild type mice
  Vagus nerve activation: induces activation of the vagus nerve
